The subject of experiment [1] is endogenous target monocytes in human PBMC. Briefly: PBMC ex vivo monocyte depletion flow cytometry assay (Example 200). In kind it is cell-based. The note with it: with anti-cotinine antibody (SEQ ID NO: 11/12), 18-24 hours, EC50 in molar, read-out: Ex Vivo Depletion Assay pEC50 (converted). The method, boiled down: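 Monocyte depletion is reported as pEC50, averaged or given individually across runs, and read by flow cytometry staining CD45, CD14 and CD4 with a viability dye. Compounds, diluted four-fold over 11 points from 1 mM DMSO stocks, were combined with 30 μg/mL Fc-enhanced anti-cotinine antibody and human PBMC, then incubated 18-24 h at 37° C.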

Experiment [2] relates to CCR2 expressing cells (CD11b+Ly6c+Hi) in peripheral blood. Briefly: In vivo depletion assay, flow cytometry of peripheral blood (Example 201). To be noted: hCCR2 knock-in mice, IV 0.1 mpk compound + 10 mpk anti-cotinine antibody (SEQ ID NO: 13/14), peripheral blood at 48 hr. Further details: species or system human CCR2 knock-in mice (C57 background). The method, boiled down:
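Flow cytometry of blood collected at study termination quantified percent depletion of CD11b+Ly6c+Hi cells and CCR2 expression, using surface markers CD45, CD3, CD11b, Ly6C, human CCR2 after Fc block, with 7AAD viability stain. Compound given in saline:DMSO:PBS formulation, optionally combined with anti-cotinine antibody, incubated 30 min before administration.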

The structures appear in SMILES notation.

This note sets out measurements from patent US12521393B2, “Cytotoxicity targeting chimeras for CCR2-expressing cells” (GLAXOSMITHKLINE INTELLECTUAL PROPERTY DEVELOPMENT LIMITED, priority 2021, dated 2026).

On to `CC(C)N(C)[C@@H]1CC[C@H](N2CC[C@H](Nc3ncnc4ccc(C(F)(F)F)cc34)C2=O)[C@H](NC(=O)[C@H]2CC[C@H](NC(=O)CCCO[C@H]3CC[C@H](OCCNC(=O)[C@H]4CC(=O)N(C)[C@@H]4c4cccnc4)CC3)CC2)C1` [Example 1, (2S,3S)-N-(2-(((1R,4S)-4-(4-(((1R,4R)-4-(((1R,2S,5R)-5-(Isopropyl(methyl)amino)-2-((S)-2-oxo-3-((6-(trifluoromethyl)quinazolin-4-yl)amino)pyrrolidin-1-yl)cyclohexyl)carbamoyl)cyclohexyl)amino)-4-oxobutoxy)cyclohexyl)oxy)ethyl)-1-methyl-5-oxo-2-(pyridin-3-yl)pyrrolidine-3-carboxamide], for which the EC50 in experiment [1] was 1.58 nM. Also, in experiment [2], the “% Depletion of CCR2 expressing cells” value came to 88.5%.

Turning to `CC(C)N(C)[C@@H]1CC[C@H](N2CC[C@H](Nc3ncnc4ccc(C(F)(F)F)cc34)C2=O)[C@H](NC(=O)[C@H]2CC[C@@H](NC(=O)CCCO[C@H]3CC[C@H](OCCNC(=O)[C@H]4CC(=O)N(C)[C@@H]4c4cccnc4)CC3)CC2)C1` [Example 5, (2S,3S)-N-(2-(((1R,4S)-4-(4-(((1S,4S)-4-(((1R,2S,5R)-5-(Isopropyl(methyl)amino)-2-((S)-2-oxo-3-((6-(trifluoromethyl)quinazolin-4-yl)amino)pyrrolidin-1-yl)cyclohexyl)carbamoyl)cyclohexyl)amino)-4-oxobutoxy)cyclohexyl)oxy)ethyl)-1-methyl-5-oxo-2-(pyridin-3-yl)pyrrolidine-3-carboxamide], the EC50 in experiment [1] was 0.398 nM. The “% Depletion of CCR2 expressing cells” value in experiment [2] was found to be 91.05%.

As for `CC(C)N(C)[C@@H]1CC[C@H](N2CC[C@H](Nc3ncnc4ccc(C(F)(F)F)cc34)C2=O)[C@H](NC(=O)CCOCCNC(=O)CCCO[C@H]2CC[C@H](OCCNC(=O)[C@H]3CC(=O)N(C)[C@@H]3c3cccnc3)CC2)C1` [Example 7, (2S,3S)-N-(2-(((1r,4S)-4-(4-((2-(3-(((1R,2S,5R)-5-(Isopropyl(methyl)amino)-2-((S)-2-oxo-3-((6-(trifluoromethyl)quinazolin-4-yl)amino)pyrrolidin-1-yl)cyclohexyl)amino)-3-oxopropoxy)ethyl)amino)-4-oxobutoxy)cyclohexyl)oxy)ethyl)-1-methyl-5-oxo-2-(pyridin-3-yl)pyrrolidine-3-carboxamide], the EC50 in experiment [1] was 0.501 nM. In addition, the “% Depletion of CCR2 expressing cells” value in experiment [2] amounted to 47%.

Turning to `CN1C(=O)C[C@H](C(=O)NCCO[C@H]2CC[C@H](OCCCC(=O)N[C@H]3CC[C@H](C(=O)N[C@@H]4C[C@H](NC(C)(C)C)CC[C@@H]4N4CC[C@H](Nc5ncnc6ccc(C(F)(F)F)cc56)C4=O)CC3)CC2)[C@H]1c1cccnc1` [Example 10, (2S,3S)-N-(2-(((1R,4S)-4-(4-(((1R,4R)-4-(((1R,2S,5R)-5-(tert-Butylamino)-2-((S)-2-oxo-3-((6-(trifluoromethyl)quinazolin-4-yl)amino)pyrrolidin-1-yl)cyclohexyl)carbamoyl)cyclohexyl)amino)-4-oxobutoxy)cyclohexyl)oxy)ethyl)-1-methyl-5-oxo-2-(pyridin-3-yl)pyrrolidine-3-carboxamide], the “% Depletion of CCR2 expressing cells” value in experiment [2] is 94.9%.

In the case of `CC(C)N(C)[C@@H]1CC[C@H](N2CC[C@H](Nc3ncnc4ccc(C(F)(F)F)cc34)C2=O)[C@H](NC(=O)[C@H]2CC[C@@H](NC(=O)CCOCCOCCNC(=O)CCNC(=O)[C@H]3CC(=O)N(C)[C@@H]3c3cccnc3)CC2)C1` [Example 16, (2S,3S)-N-(3-((2-(2-(3-(((1S,4s)-4-(((1R,2S,5R)-5-(Isopropyl(methyl)amino)-2-((S)-2-oxo-3-((6-(trifluoromethyl)quinazolin-4-yl)amino)pyrrolidin-1-yl)cyclohexyl)carbamoyl)cyclohexyl)amino)-3-oxopropoxy)ethoxy)ethyl)amino)-3-oxopropyl)-1-methyl-5-oxo-2-(pyridin-3-yl)pyrrolidine-3-carboxamide], the EC50 in experiment [1] was 0.316 nM. In experiment [2], the “% Depletion of CCR2 expressing cells” value was found to be 74%.

Consider `CC(C)N(C)[C@@H]1CC[C@H](N2CC[C@H](Nc3ncnc4ccc(C(F)(F)F)cc34)C2=O)[C@H](NC(=O)[C@H]2CC[C@@H](NC(=O)CCCC(=O)NCCCOCCCNC(=O)[C@H]3CC(=O)N(C)[C@@H]3c3cccnc3)CC2)C1` [Example 18, N^1-((1S,4s)-4-(((1R,2S,5R)-5-(Isopropyl(methyl)amino)-2-((S)-2-oxo-3-((6-(trifluoromethyl)quinazolin-4-yl)amino)pyrrolidin-1-yl)cyclohexyl)carbamoyl)cyclohexyl)-N^5-(3-(3-((2S,3S)-1-methyl-5-oxo-2-(pyridin-3-yl)pyrrolidine-3-carboxamido)propoxy)propyl)glutaramide], for which the EC50 in experiment [1] is 0.501 nM. In addition, the “% Depletion of CCR2 expressing cells” value in experiment [2] is listed as 88%.

For `CC(C)N(C)[C@@H]1CC[C@H](N2CC[C@H](Nc3ncnc4ccc(C(F)(F)F)cc34)C2=O)[C@H](NC(=O)[C@H]2CC[C@H](NC(=O)CCCC(=O)NCCCOCCCNC(=O)[C@H]3CC(=O)N(C)[C@@H]3c3cccnc3)CC2)C1` [Example 19, N1-((1R,4r)-4-(((1R,2S,5R)-5-(Isopropyl(methyl)amino)-2-((S)-2-oxo-3-((6-(trifluoromethyl)quinazolin-4-yl)amino)pyrrolidin-1-yl)cyclohexyl)carbamoyl)cyclohexyl)-N5-(3-(3-((2S,3S)-1-methyl-5-oxo-2-(pyridin-3-yl)pyrrolidine-3-carboxamido)propoxy)propyl)glutaramide], the EC50 in experiment [1] was 0.794 nM. In addition, the “% Depletion of CCR2 expressing cells” value in experiment [2] is given as 59%.

As for `CN1C(=O)C[C@H](C(=O)NCCOCCOCCOCCC(=O)N[C@H]2CC[C@@H](C(=O)N[C@@H]3C[C@H](NC(C)(C)C)CC[C@@H]3N3CC[C@H](Nc4ncnc5ccc(C(F)(F)F)cc45)C3=O)CC2)[C@H]1c1cccnc1` [Example 23, (2S,3S)-N-(2-(2-(2-(3-(((1S,4s)-4-(((1R,2S,5R)-5-(tert-Butylamino)-2-((S)-2-oxo-3-((6-(trifluoromethyl)quinazolin-4-yl)amino)pyrrolidin-1-yl)cyclohexyl)carbamoyl)cyclohexyl)amino)-3-oxopropoxy)ethoxy)ethoxy)ethyl)-1-methyl-5-oxo-2-(pyridin-3-yl)pyrrolidine-3-carboxamide], in experiment [1], the EC50 was 2 nM. For the same compound, the “% Depletion of CCR2 expressing cells” value in experiment [2] was found to be 90.7%.

Take `CC(C)N(C)[C@@H]1CC[C@H](N2CC[C@H](Nc3ncnc4ccc(C(F)(F)F)cc34)C2=O)[C@H](NC(=O)CCOCCOCCOCCOCCOCCNC(=O)[C@H]2CC(=O)N(C)[C@@H]2c2cccnc2)C1` [Example 40, (2S,3S)-N-(18-(((1R,2S,5R)-5-(Isopropyl(methyl)amino)-2-((S)-2-oxo-3-((6-(trifluoromethyl)quinazolin-4-yl)amino)pyrrolidin-1-yl)cyclohexyl)amino)-18-oxo-3,6,9,12,15-pentaoxaoctadecyl)-1-methyl-5-oxo-2-(pyridin-3-yl)pyrrolidine-3-carboxamide]: the EC50 in experiment [1] is 5.01 nM.

As to `CC(C)N(C)[C@@H]1CC[C@H](N2CC[C@H](Nc3ncnc4ccc(C(F)(F)F)cc34)C2=O)[C@H](NC(=O)CCOCCOCCOCCOCCOCCOCCNC(=O)[C@H]2CC(=O)N(C)[C@@H]2c2cccnc2)C1` [Example 41, (2S,3S)-N-(21-(((1R,2S,5R)-5-(isopropyl(methyl)amino)-2-((S)-2-oxo-3-((6-(trifluoromethyl)quinazolin-4-yl)amino)pyrrolidin-1-yl)cyclohexyl)amino)-21-oxo-3,6,9,12,15,18-hexaoxahenicosyl)-1-methyl-5-oxo-2-(pyridin-3-yl)pyrrolidine-3-carboxamide], in experiment [1], the EC50 is 2.51 nM.
